Common to all, as to conditions: stereoisomer not certain
Series [1] is described as follows: RP, Waters CORTECS T3, 100 × 2.1 mm, 2.7 µm, 0.15 mL/min, estimated dead time 1.5 min; A: water + 0.1% formic acid, pH 3; B: methanol + 0.1% formic acid, pH 3; gradient (min/%B) 0/0 1/0 6/5 30/100 35/100 35.1/0 40/0.
Series [2] in a line: RP, Waters ACQUITY UPLC BEH C18, 100 × 2.1 mm, 1.7 µm, 0.1 mL/min, estimated dead time 2.2 min; A: water + 0.1% formic acid, pH 3; B: methanol + 0.1% formic acid, pH 3; gradient (min/%B) 0/5 5/5 25/100 30/100 30.1/5 35/5.
Series [3] in a line: RP, Waters ACQUITY UPLC BEH C18, 100 × 2.1 mm, 1.7 µm, 0.1 mL/min, estimated dead time 2.2 min; A: water + 0.1% formic acid, pH 3; B: methanol + 0.1% formic acid, pH 3; gradient (min/%B) 0/5 5/5 25/95 25.1/100 35/100 35.1/5 45/5.
A short description of series [4]: RP, Waters CORTECS T3, 100 × 2.1 mm, 2.7 µm, 0.3 mL/min, estimated dead time 0.73 min; A: water + 0.1% formic acid, pH 3; B: methanol + 0.1% formic acid, pH 3; gradient (min/%B) 0/0 5/0 25/100 30/100 30.1/0 35/0.
The nature of series [5]: RP, Waters CORTECS T3, 100 × 2.1 mm, 2.7 µm, 0.3 mL/min, estimated dead time 0.73 min; A: water + 0.1% formic acid, pH 3; B: methanol + 0.1% formic acid, pH 3; gradient (min/%B) 0/0 1/0 6/5 30/100 35/100 35.1/0 40/0.
Series [6] is described as follows: RP, Waters CORTECS T3, 100 × 2.1 mm, 2.7 µm, 0.1 mL/min, estimated dead time 2.2 min; A: water + 0.1% formic acid, pH 3; B: methanol + 0.1% formic acid, pH 3; gradient (min/%B) 0/5 5/5 25/95 25.1/100 35/100 35.1/5 45/5.
A short description of series [7]: RP, Waters CORTECS T3, 100 × 2.1 mm, 2.7 µm, 0.3 mL/min, estimated dead time 0.73 min; A: water + 0.1% formic acid, pH 3; B: methanol + 0.1% formic acid, pH 3; gradient (min/%B) 0/5 5/5 25/95 25.1/100 35/100 35.1/5 45/5.
A short description of series [8]: RP, Waters CORTECS T3, 100 × 2.1 mm, 2.7 µm, 0.1 mL/min, estimated dead time 2.2 min; A: water + 0.1% formic acid, pH 3; B: methanol + 0.1% formic acid, pH 3; gradient (min/%B) 0/0 1/0 6/5 30/100 35/100 35.1/0 40/0.
A short description of series [9]: RP, Waters CORTECS T3, 100 × 2.1 mm, 2.7 µm, 0.3 mL/min, estimated dead time 0.73 min; A: water + 0.1% formic acid, pH 3; B: methanol + 0.1% formic acid, pH 3; gradient (min/%B) 0/5 5/5 25/100 30/100 30.1/5 35/5.
Series [10] is described as follows: RP, Waters CORTECS T3, 100 × 2.1 mm, 2.7 µm, 0.25 mL/min, estimated dead time 0.88 min; A: water + 0.1% formic acid, pH 3; B: methanol + 0.1% formic acid, pH 3; gradient (min/%B) 0/0 1/0 6/5 30/100 35/100 35.1/0 40/0.
A short description of series [11]: RP, Waters ACQUITY UPLC BEH C18, 100 × 2.1 mm, 1.7 µm, 0.1 mL/min, estimated dead time 2.2 min; A: water + 0.1% formic acid, pH 3; B: methanol + 0.1% formic acid, pH 3; gradient (min/%B) 0/5 5/5 25/95 25.1/100 35/100 35.1/5 45/5. This is another data set of the same source.
Series [12] can be described thus: RP, Waters CORTECS T3, 100 × 2.1 mm, 2.7 µm, 0.2 mL/min, estimated dead time 1.1 min; A: water + 0.1% formic acid, pH 3; B: methanol + 0.1% formic acid, pH 3; gradient (min/%B) 0/0 1/0 6/5 30/100 35/100 35.1/0 40/0.
Series [13] is described as follows: RP, Waters ACQUITY UPLC BEH C18, 100 × 2.1 mm, 1.7 µm, 0.1 mL/min, estimated dead time 2.2 min; A: water + 0.045% formic acid + 0.11% ammonium hydroxide, pH 7; B: methanol; gradient (min/%B) 0/5 5/5 25/95 25.1/100 35/100 35.1/5 45/5.
The nature of series [14]: RP, Waters CORTECS T3, 100 × 2.1 mm, 2.7 µm, 0.2 mL/min, estimated dead time 1.1 min; A: water + 0.045% formic acid + 0.11% ammonium hydroxide, pH 7; B: methanol; gradient (min/%B) 0/5 5/5 25/95 25.1/100 35/100 35.1/5 45/5.
Series [15] in a line: RP, Waters ACQUITY UPLC BEH C18, 100 × 2.1 mm, 1.7 µm, 0.2 mL/min, estimated dead time 1.1 min; A: water + 0.025% formic acid + 20 mM ammonium acetate + 0.055% ammonium hydroxide, pH 7; B: methanol; gradient (min/%B) 0/5 5/5 25/100 30/100 30.1/5 35/5.

This passage reports LC retention time results from the RepoRT retention time repository (doi:10.1016/j.jchromb.2020.122105).

With `O=C(O)c1ccc(=O)[nH]c1` [6-HYDROXYNICOTINATE], the LC retention time in series [1] was 6.98 min; in [2], 6.36 min; in series [3], 2.75 min; in series [4], 3.6 min; in series [5], 3.45 min; in [6], 6.46 min. For the same compound, the LC retention time is 2.17 min in series [7]; 3.28 min in [8]; 2.27 min in series [9]; 4.17 min in [10]; 6.29 min in [11]; 5.13 min in series [12].
Consider `C=CC1=C(C)C(C=c2[nH]c(=Cc3[nH]c(C=C4NC(=O)C(C)=C4C=C)c(C)c3CCC(=O)O)c(CCC(=O)O)c2C)=NC1=O` [BILIVERDIN], for which the LC retention time is 24.7 min in series [1]; 22.8 min in series [2]; 23.5 min in [3]; 22.6 min in series [5]; 23.4 min in [13]; 23.8 min in [6]. The LC retention time in [14] was 20.9 min; in [7] it was 19.9 min; in series [8], 21 min; in series [15], 19.9 min; in [10] it was 22.9 min; in [11], 23.5 min. Further, the LC retention time in series [12] was 23.5 min.
For `Cn1c(=O)c2c(ncn2C)n(C)c1=O` [CAFFEINE], the LC retention time in series [1] was 14.2 min; in [2] it was 14.4 min; in [3], 14.6 min; in [4], 11.1 min; in series [5], 11.7 min; in series [13], 14.6 min. Further, the LC retention time in [6] was 14.7 min; in series [14], 11.6 min; in series [7], 10.2 min; in series [8], 11.5 min; in series [9], 10.1 min; in series [15] it was 11.3 min. The LC retention time in [10] is 12.2 min; in series [11] it was 14.6 min; in [12] it was 13 min.
`CC12CCC(=O)C=C1CCC1C2C(O)CC2(C)C1CCC2(O)C(=O)CO` (stereo not drawn) [CORTISOL]: the LC retention time was 22 min in series [1]; 21.1 min in series [2]; 21.6 min in series [3]; 17.3 min in series [4]; 19.4 min in [5]; 21.6 min in series [13]. The LC retention time is 21.6 min in [6]; 18.5 min in series [14]; 17.2 min in [7]; 18.5 min in [8]; 16.7 min in [9]; 18.1 min in series [15]. Moreover, the LC retention time was 20 min in [10], 21.6 min in [11] and 20.8 min in series [12].
Consider `CC12CCC(=O)C=C1CCC1C2C(=O)CC2(C)C1CCC2(O)C(=O)CO` (stereo not drawn) [CORTISONE], for which the LC retention time in series [1] was 21.4 min; in series [2] it was 20.5 min; in series [3] it was 21 min; in series [4] it was 16.9 min; in series [5], 18.9 min; in [13] it was 21 min. Further, the LC retention time in series [6] is 21 min; in series [14] it was 18 min; in series [7], 16.7 min; in series [8], 18 min; in series [9], 16.3 min; in series [15], 17.6 min. Also, the LC retention time in series [10] is 19.5 min; in series [11], 21 min; in series [12], 20.2 min.
Regarding `CC(=O)OCC(=O)C1CCC2C3CCC4=CC(=O)CCC4(C)C3CCC12C` (stereo not drawn) [DEOXYCORTICOSTERONE ACETATE], the LC retention time in series [1] is 26.3 min; in series [2], 24.5 min; in series [3] it was 25.3 min; in [4], 20.8 min; in series [5], 23.8 min; in [13], 25.3 min. The LC retention time in series [6] was 25.4 min; in [14], 22.4 min; in [7], 21.1 min; in series [8] it was 22.4 min; in [9], 20.4 min; in series [15] it was 21.6 min. In addition, the LC retention time in series [10] is 24.4 min; in [11], 25.3 min; in [12], 25.2 min.
Consider `OCCc1c[nH]c2ccccc12` [INDOLE-3-ETHANOL], for which the LC retention time in series [1] was 17.7 min; in series [2] it was 18.2 min; in [3], 18.5 min; in [4] it was 13.6 min; in series [5], 14.6 min; in series [13], 18.5 min. In addition, the LC retention time in [6] was 18 min; in [14] it was 14.5 min; in series [7], 12.9 min; in [8], 14.5 min; in series [9], 12.7 min; in [15], 14.7 min. Also, the LC retention time was 15.3 min in [10], 18.5 min in series [11] and 16.2 min in series [12].
For `CCCCCCCCCCCCCCCC(O)C(N)CO` (stereo not drawn) [SPHINGANINE], the LC retention time is 28.2 min in series [1]; 26.4 min in series [2]; 27.9 min in series [3]; 22.4 min in series [4]; 26.1 min in series [5]; 29.1 min in series [13]. Moreover, the LC retention time in [6] is 26.6 min; in series [7], 23 min; in [8], 24.1 min; in [9], 22.2 min; in series [10], 26.6 min; in series [11], 28.1 min. In [12], the LC retention time was 27.4 min.
In the case of `CSc1ncnc2nc[nH]c12` [THIOPURINE S-METHYLETHER], the LC retention time in [1] is 14.4 min; in series [2] it was 15.1 min; in series [3] it was 15.2 min; in [4], 11 min; in [5], 11.4 min; in series [13] it was 15.3 min. Further, the LC retention time in [6] was 15.1 min; in series [14], 11.7 min; in series [7], 9.92 min; in series [8], 11.4 min; in [9], 9.81 min; in [15], 11.7 min. Also, the LC retention time in series [10] is 12.1 min; in series [11] it was 15.2 min; in series [12], 12.9 min.
